≈ marks a conversion by molar mass, not a printed value. Counter-ions that a name gives are not always drawn. One block for each molecule: values may come before it.
Legend:
physchem = settings: water
[1] = Water solubility of racemic and optically active dihydropyridines, free or bound in inclusion complexes (room temperature, filtrates of saturated solutions, liquid chromatography); settings: for Water solubility, complex. HE-β-CD: bound in inclusion complex with HE-β-CD (2-hydroxyethyl-cyclodextrin); for Water solubility, complex. HP-β-CD: bound in inclusion complex with HP-β-CD (2-hydroxypropyl-cyclodextrin); for Water solubility, complex. Me-β-CD: bound in inclusion complex with Me-β-CD; for Water solubility, complex. β-CD: bound in inclusion complex with β-CD; for Water solubility of particular enantiomers (in words): (-) compared with (+) nicardipine.HCl; for Water solubility, uncomplex.: free form
[2] = one enantiomer versus the other; literature; cited from earlier work
[3] = by means of DIMEB (heptakis-(2,6-di-O-dimethyl)-β-cyclodextrin); cited from earlier work

SMILES: CCOC(=O)C1=C(COCCN)NC(C)=C(C(=O)OC)[C@H]1c1ccccc1Cl (single isomer, unassigned) [R-(-) isomer of amlodipine]
activity relative to the other enantiomer [2]: substantially higher activity

SMILES: COC(=O)C1=C(C)NC(C)=C(C(=O)OCCN(C)Cc2ccccc2)C1c1cccc([N+](=O)[O-])c1 (single isomer, unassigned; (+)) [(+) nicardipine]
activity relative to the other enantiomer [2]: three times higher activity

SMILES: COC(=O)C1=C(C)NC(C)=C(C(=O)OCCN(C)Cc2ccccc2)C1c1cccc([N+](=O)[O-])c1 (single isomer, unassigned; (-)) [(-)nicardipine.HCl]
Water solubility of particular enantiomers (in words) [1]: different water solubilities
Water solubility, complex. HE-β-CD ([1]; room temperature): 54.2 mg/mL
Water solubility, complex. HP-β-CD ([1]; room temperature): 68.0 mg/mL
Water solubility, complex. Me-β-CD ([1]; room temperature): 127.4 mg/mL
Water solubility, complex. β-CD ([1]; room temperature): 15.6 mg/mL
Water solubility, uncomplex. ([1]; room temperature): 0.1 mg/mL
Water solubility, complex. HP-β-CD (molar ratio 1:2) ([1]; molar ratio of the complex (-)NC.HCl:HP CD amounts to 1:2, room temperature): 130.0 mg/mL

SMILES: CCOC(=O)C1=C(COCCN)NC(C)=C(C(=O)OC)C1c1ccccc1Cl (centres unmarked) [amlodipine besylate, 3-ethyl-5-methyl-2-[(2-aminoethoxy)methyl]-4-(2-chlorophenyl) 1,4-dihydro-6-methyl-3,5-pyridinedicarboxylate-monobenzensulfonate]
solubility (physchem): 1.1 mg/mL
Water solubility, complex. HE-β-CD ([1]; room temperature): 4.5 mg/mL
Water solubility, complex. HP-β-CD ([1]; room temperature): 17.0 mg/mL
Water solubility, complex. Me-β-CD ([1]; room temperature): 25.0 mg/mL
Water solubility, complex. β-CD ([1]; room temperature): 10.0 mg/mL
Water solubility (in words) ([1]; comparison in words, inclusion complexes with Me-β-CD): improved water solubility

SMILES: COc1ccc2c(c1)c(CC(=O)O)c(C)n2C(=O)c1ccc(Cl)cc1 [indometacin]
enhancement of water solubility [3]: 20.4 times

Results, then the molecule that gave them:

solubility (physchem): 1.5 mg/mL
Water solubility, complex. HE-β-CD ([1]; room temperature): 53.8 mg/mL
Water solubility, complex. HP-β-CD ([1]; room temperature): 97.9 mg/mL
Water solubility, complex. Me-β-CD ([1]; room temperature): 145.8 mg/mL
Water solubility, complex. β-CD ([1]; room temperature): 54.8 mg/mL
SMILES: COC(=O)C1=C(C)NC(C)=C(C(=O)OCCN(C)Cc2ccccc2)C1c1cccc([N+](=O)[O-])c1 (racemic) [(±)nicardipine.HCl, 2-(N-benzyl-N-methyl-amino)-ethylmethyl-2,6-dimethyl-4-(3-nitrophenyl) -1,4-dihydropyridine-3,5-dicarboxylatehydrochloride]

solubility (physchem): 0.0006 mg/mL (≈ 1.66 µM)
SMILES: CCOC(=O)C1=C(C)NC(C)=C(C(=O)OC)C1c1cccc([N+](=O)[O-])c1 (racemic) [(±)nitrendipine, 3-ethyl-5-methyl-1,4-dihydro-2,6-dimethyl-4-(3-nitrophenyl)-3,5-pyridinedicarboxylate]

Water solubility of particular enantiomers (in words) [1]: different water solubilities
Water solubility, complex. HE-β-CD ([1]; room temperature): 52.7 mg/mL
Water solubility, complex. HP-β-CD ([1]; room temperature): 59.9 mg/mL
Water solubility, complex. Me-β-CD ([1]; room temperature): 133.1 mg/mL
Water solubility, complex. β-CD ([1]; room temperature): 15.8 mg/mL
Water solubility, uncomplex. ([1]; room temperature): 0.4 mg/mL
SMILES: COC(=O)C1=C(C)NC(C)=C(C(=O)OCCN(C)Cc2ccccc2)C1c1cccc([N+](=O)[O-])c1 (single isomer, unassigned; (+)) [(+)nicardipine.HCl]

solubility (physchem): 0.0008 mg/mL (≈ 2.08 µM)
SMILES: CCOC(=O)C1=C(C)NC(C)=C(C(=O)OC)C1c1cccc(Cl)c1Cl (centres unmarked) [felodipine, ethylmethyl-1,4-dihydro-2,6-dimethyl-4-(2,3-dichlorophenyl)-3,5-pyridinedicarboxylate]

Source: patent US5519012A, “Inclusion complexes of optically active 1,4-dihydropyridines with methyl-β-cyclodextrin” (LEK, tovarna farmacevtskih in kemicnih izdelkov, d.d., …, priority 1992, dated 1996)
